Experimental data taken from publication PMC6205183 (Oncotarget, 2018).
pIC50: −log10 of the molar value. “Also recorded” adds a separate entry of the source. Blank lines part the entries; values can stand above or below the compound they belong to.

What was measured:
K562-R cells = assay: Viability assay (Annexin V/7AAD), K562-R; assay type: cell-based, human; conditions: for viability on co-treatment with ponatinib / pIC50: K562-R; for viability on co-treatment with ponatinib: compared to control line; for pIC50: read-out: TKI viability assay IC50
Method: (§1) Cells were removed from drug-containing culture medium, washed and re-cultured in fresh media (with testing drug) for 72 hours. Cells then were stained with 7-Amino-actinomycin D (7AAD) and Annexin V-PE. Flow cytometry (BD LSRFortessaTM X-20 with high-throughput platform) was performed to determine cell viability: cells stained positive for Annexin V-PE and 7AAD were considered to be apoptotic or dead respectively. The data were analysed using FCS Express software (DeNovo Software, Los Angeles, California, USA).

Axl [1] = system: Axl; parameters: method as in PMID 20080645, PMID 16230391, PMID 20603615, PMID 20145120; conditions: cited from earlier work
K562 DOX-R cells = assay: Viability assay (Annexin V/7AAD), K562 DOX-R; assay type: cell-based, human; conditions: for viability on co-treatment with ponatinib / pIC50: K562 DOX-R; for viability on co-treatment with ponatinib: compared to control line; for pIC50: read-out: TKI viability assay IC50
Method: as §1

K562 DOX 55D-R cells = assay: cells; conditions: Homo sapiens, K562, read-out: TKI viability assay IC50
Method: as §1

K562 T315I-R cells = assay: cells; conditions: Homo sapiens, K562, read-out: TKI viability assay IC50
Method: as §1

[2] = 45 mg once daily; cited from earlier work
K562-R-AXL KD cells = assay: Viability assay, AXL knock-down K562-R; assay type: cell-based, human; conditions: 10 nM ponatinib, 72 hours, n=3
Method: (§2) Stable AXL knock-down K562-R-AXL KD, and K562 DOX-R-AXL KD cell lines were generated, as well as the scramble control lines K562-R-scramble CTL, and K562 DOX-R-scramble CTL.
as §1
(§3) The GFP level and Axl expression level were measured after fluorescence-activated cell sorting (FACS) and before each experiment to ensure purity.

K562 DOX-R-AXL KD cells = assay: Viability assay, AXL knock-down K562 DOX-R; assay type: cell-based, human; conditions: 10 nM ponatinib, 72 hours, n=3
Method: as §2, §1, §3

[3] = system: K562 DOX-R-scramble CTL cells; assay: Viability assay, scramble shRNA K562 DOX-R; assay type: cell-based, human; conditions: K562 DOX-R scrambled shRNA control, 10 nM ponatinib, 72 hours, n=3
Method: as §2, §1, §3

K562 DOX cells = assay: Viability assay (Annexin V/7AAD), K562 DOX control; assay type: cell-based, human; conditions: 200 nM ponatinib, three days
Method: (§4) Flow cytometry (BD LSRFortessaTM X-20 with high-throughput platform) was performed to determine cell viability: cells stained positive for Annexin V-PE and 7AAD were considered to be apoptotic or dead respectively. […]

[4] = system: K562-R-scramble CTL cells; assay: Viability assay, scramble shRNA K562-R; assay type: cell-based, human; conditions: K562-R scrambled shRNA control, 10 nM ponatinib, 72 hours, n=3
Method: as §2, §1, §3

K562 cells = assay: Viability assay (Annexin V/7AAD), K562 control; assay type: cell-based, human; conditions: 200 nM ponatinib, three days
Method: as §4

Axl [5] = conditions: no reference given; cited from earlier work

Compound: Nc1nc(Nc2ccc3c(c2)CCC(N2CCCC2)CC3)nn1-c1cc2c(nn1)-c1ccccc1CCC2 (stereo not drawn) [R428]
viability on co-treatment with ponatinib (K562-R cells; 1 μM R428 + 200 nM ponatinib, n=3, p=0.02): significantly reduced; also recorded: induced cell death significantly
specificity in targeting Axl over the other TAM family members (Mer and Tyro3) (Axl [1]): 50 to 100 fold
viability on co-treatment with ponatinib (K562 DOX-R cells; 1 μM R428 + 200 nM ponatinib, n=4, p=0.02): significantly reduced; also recorded: induced cell death significantly

pIC50 (K562 DOX 55D-R cells): < 6.70
pIC50 (K562 T315I-R cells): < 6.70
pIC50 (K562-R cells; Homo sapiens, K-562R): < 6.70
pIC50 (K562 DOX-R cells; Homo sapiens): < 6.70
Compound: Cc1nc(Nc2ncc(C(=O)Nc3c(C)cccc3Cl)s2)cc(N2CCN(CCO)CC2)n1 [dasatinib]

Compound: Cc1ccc(C(=O)Nc2ccc(CN3CCN(C)CC3)c(C(F)(F)F)c2)cc1C#Cc1cnc2cccnn12 [ponatinib, 3-[2-(imidazo[1,2-b]pyridazin-3-yl)ethynyl]-4-methyl-N-{4-[(4-methylpiperazin-1-yl)methyl]-3-(trifluoromethyl)phenyl}benzamide]
medium human peak plasma level [2]: 145 nM
medium human trough plasma level [2]: 64 nM
reduction in viability (K562-R-AXL KD cells): 68%
reduction in viability (K562 DOX-R-AXL KD cells): 53%
reduction in viability [3]: 16%
viability at 0.2 µM (K562-R cells; Homo sapiens, K-562R, 72 h): > 75%
sensitivity to ponatinib (viability) (K562 DOX cells): demonstrated sensitivity
reduction in viability [4]: 22%
sensitivity to ponatinib (viability) (K562 cells): demonstrated sensitivity
viability at 0.2 µM (K562 DOX-R cells; Homo sapiens, K562, 72 h): > 75%

Compound: CCOc1ccn(-c2ccc(F)cc2)c(=O)c1C(=O)Nc1ccc(Oc2ccnc(N)c2Cl)c(F)c1 [BMS-777607]
viability on co-treatment with ponatinib (K562-R cells; 12.5 μM BMS777607 + 200 nM ponatinib, n=3, p=0.03): significantly reduced; also recorded: induced cell death significantly
potency against Axl relative to MET (Axl [5]): 3 times
viability on co-treatment with ponatinib (K562 DOX-R cells; 12.5 μM BMS777607 + 200 nM ponatinib, n=4, p<0.01): significantly reduced; also recorded: induced cell death significantly

pIC50 (K562 DOX 55D-R cells): < 6.00
pIC50 (K562 T315I-R cells): < 6.00
pIC50 (K562-R cells; Homo sapiens, K-562R): < 6.00
pIC50 (K562 DOX-R cells; Homo sapiens): < 6.00
Compound: Cc1cn(-c2cc(NC(=O)c3ccc(C)c(Nc4nccc(-c5cccnc5)n4)c3)cc(C(F)(F)F)c2)cn1 [nilotinib]
